Values after ≈ are worked out from the molar mass of the structure shown. Like-named read-outs stand apart in the source and are kept apart here.
Columns and labels:
[1] = test system: IL-6 release in LPS-stimulated BV-2 microglial cells; experiment: IL-6 ELISA; assay type: cell-based, murine; conditions: 10 μM, 12 h pre-incubation, then 1 μg/mL LPS 24 h; compared with curcumin
Procedure: (§1) BV-2 microglial cells were plated in a 24-well plate at a density of 2 × 10^5 per well for 24 h. The cells were pre-incubated for 12 h with curcumin (10 μM), CUR-2GE (10 μM), medium (DMEM), or a vehicle (0.5% DMSO). The cells were then induced with 1 μg/mL LPS for 24 h. The culture medium samples were collected and analyzed for nitric oxide (NO) and cytokines (TNF- and IL-6) using NO and enzyme-linked immunoassay (ELISA) assays, respectively.
(§2) Quantification of TNF-α and IL-6 was performed using commercially available ELISA kits according to the manufacturer’s protocol (BioLegend, San Diego, CA, USA). The absorbance was measured at 450 nm using the microplate reader, and the amount of TNF-α and IL-6 was determined against their corresponding standard curves of TNF-α and IL-6.

[2] = test system: TNF-α release in LPS-stimulated BV-2 microglial cells; experiment: TNF-α ELISA; assay type: cell-based, murine; conditions: 10 μM, 12 h pre-incubation, then 1 μg/mL LPS 24 h; compared with curcumin
Procedure: as §1, §2

[3] = Solubility in water, buffer pH 4.5 and ethanol (UPLC); assay type: physicochemical; conditions: for solubility at 1 h: thermodynamic from solid
Procedure: An excess amount of CUR-2GE (2 mg) was added to 2 mL of three solvents, water, phosphate buffer pH 4.5 and ethanol. The samples were sonicated at 25°C for 1 h and then placed on an orbital shaker at 100 rpm at 25°C for 1 h. The obtained mixture was then centrifuged at 25°C at 14,000 rpm for 10 min [37, 38]. The supernatant was analyzed using UPLC and the solubility of CUR-2GE in each medium was determined. Experiments were performed in triplicate. The solubility category was classified according to USP [39]. The percentage of CUR-2GE in the undissociated form at various pH values was calculated based on the Henderson-Hasselbalch equation [40] (see S1 Appendix).
S1 Appendix. Experimental procedures
The solubility category was classified according to USP [1] as very soluble (>1000 mg/mL), freely soluble (100-1000 mg/mL), soluble (33-100 mg/mL), sparingly soluble (10-33 mg/mL), slightly soluble (1-10 mg/mL), very slightly soluble (0.1-1 mg/mL) and practically […]
The percentage of CUR-2GE in the undissociated form at various pH values were calculated based on Henderson-Hasselbalch using Eq. 1:
%Undissociated form = 100 - antilog (pH-pKa) x 100 (1)
Where pH; pH value of the medium for solubilization, pKa; negative logarithm of the dissociation constant (Ka) of CUR-2GE with computed using the Marvin (Product version: 21.8.0) of ChemAxon (Budapest, Hungary) (http://www.chemaxon.com) accessed on June 2021. […]

[4] = Chemical stability in aqueous buffer solutions at 37°C; assay type: physicochemical; conditions: for half-life at 10 μg/mL: read-out: t1/2, hydrolysis (converted)
Procedure: Chemical stability of CUR-2GE was performed at 37°C in aqueous buffer solutions at pH 1.2, 4.5, 6.8 and 7.4. CUR-2GE (1 mg) was dissolved in DMSO (1 mL) and adjusted with the diluent in a 5-mL volumetric flask to obtain a stock solution at 200 μg/mL. The stock solution was diluted with a pre-incubated buffer in a vial at 37°C at an initial concentration of 10 μg/mL [26]. Each sample was incubated at 37°C at appropriate intervals and analyzed using UPLC. The experiment was performed in triplicate. The hydrolytic products were also identified by comparing chromatographic retention times to curcumin and CUR-1GE. Kinetic profiles of CUR-2GE and its hydrolytic products, including curcumin and CUR-1GE, were determined by plotting percent peak area vs. incubation time. The linear slope of the natural logarithm of concentrations against time was used to calculate the degradation rate (k) and half-life (t1/2) using the linear pseudo-first-order model (see S1 Appendix). […]
The linear slopes of the natural logarithm of a concentration against time were used to calculate the degradation rate (k) for the pseudo-first-order (Eq. 5).
Ln [At] = Ln [A0] - kt (5)
Where A0 is the CUR-2GE concentration at time 0, At is the concentration of CUR-2GE at time t, and k is the degradation rate constant of CUR-2GE.
(§3) The half-lives (t1/2) of CUR-2GE were calculated by Eq. 6: […]

[5] = Partition coefficient, shake flask method (OECD 107); assay type: physicochemical; conditions: 25°C, aqueous phase not detectable, LOQ of 0.05 μg/mL used for calculation
Procedure: The partition coefficient of CUR-2GE was quantified using the shake flask method according to the guideline of OECD 107 with some modifications. A saturated mixture of n-octanol/water was firstly prepared at 25°C by stirring an equal volume of n-octanol/water for 24 h and left standing until complete separation. A 1 mg of CUR-2GE was dissolved in saturated n-octanol and water at volume ratios of 1:1, 1:2 and 2:1 in screw cap tubes. Experiments were run in duplicate. The tube was shaken through 180° over the transverse axis approximately 100 times in 5 min at room temperature (25°C) to reach equilibrium and phase distribution. The phases were then separated by centrifugation at 25°C at 5,500 rpm for 10 min. […] CUR-2GE concentrations in each phase were analyzed by UPLC, and the Po/w value was determined. In addition to water used as an aqueous phase, the partition coefficient between n-octanol and buffer at pH 4.5 and the Po/buffer pH 4.5 value were determined (see S1 Appendix).
The Po/w value and Po/buffer pH 4.5 value were calculated by Eq. 3 and Eq. 4, respectively. The Log Po/w and Log Po/buffer pH 4.5 were evaluated from the average results (n = 6) from three solvent ratios, where the results fall within the range of variation of ± 0.3 units. […]
as §3

[6] = 25°C, <LOQ refers to less than 0.05 μg/mL

Which results are given for `CCOC(=O)CCCNC(=O)Oc1ccc(/C=C/C(=O)/C=C(O)/C=C/c2ccc(OC(=O)NCCCC(=O)OCC)c(OC)c2)cc1OC` [CUR-2GE, Curcumin diethyl γ-aminobutyrate]?
inhibition of IL-6 release [1]: to a greater extent than curcumin; inhibition of TNF-α release [2]: to a greater extent than curcumin; Solubility, buffer pH 4.5 [3, 6]: <LOQ; Solubility, water [3, 6]: <LOQ; solubility at 1 h ([3]; ethanol, organic solvent or mixture, 25°C, read-out: Solubility, ethanol): 17.9 ± 1.76 µg/mL (≈ 26.1 µM); USP solubility classification ([3]; in water, buffer pH 4.5 and ethanol, practically insoluble = <0.1 mg/mL): practically insoluble; solubility at 1 h ([3]; phosphate buffer pH 4.5, pH 4.5, aqueous buffer, 25°C, <LOQ refers to less than 0.05 μg/mL, read-out: Solubility, buffer pH 4.5): < 0.05 µg/mL; solubility at 1 h ([3]; water, 25°C, <LOQ refers to less than 0.05 μg/mL, read-out: Solubility, water): < 0.05 µg/mL; hydrolysis rate in buffer pH 7.4 higher than pH 1.2 ([4]; 37°C): 262 folds; hydrolysis rate in buffer pH 7.4 higher than pH 4.5 ([4]; 37°C): 778 folds; hydrolysis rate in buffer pH 7.4 higher than pH 6.8 ([4]; 37°C): 1.94 folds; half-life at 10 μg/mL ([4]; aqueous buffer pH 1.2, buffer pH 1.2, 37°C): 713 ± 8.4 min; half-life at 10 μg/mL ([4]; aqueous buffer pH 4.5, buffer pH 4.5, 37°C): 2180 ± 512 min; half-life at 10 μg/mL ([4]; aqueous buffer pH 6.8, buffer pH 6.8, 37°C): 5.4 ± 0.6 min; half-life at 10 μg/mL ([4]; aqueous buffer pH 7.4, buffer pH 7.4, 37°C): 2.7 ± 0.12 min; k, pseudo-first-order hydrolysis ([4]; buffer pH 1.2, 37°C): 0.0583 ± 0.0007 h⁻¹; k, pseudo-first-order hydrolysis ([4]; buffer pH 4.5, 37°C): 0.020 ± 0.004 h⁻¹; k, pseudo-first-order hydrolysis ([4]; buffer pH 6.8, 37°C): 7.89 ± 0.54 h⁻¹; k, pseudo-first-order hydrolysis ([4]; buffer pH 7.4, 37°C): 15.31 ± 0.70 h⁻¹; logP ([5]; n-octanol/buffer pH 4.5, pH 4.5, read-out: Log P (Log Po/buffer pH 4.5), n-octanol/buffer pH 4.5): 3.43 ± 0.14; logP ([5]; n-octanol/water, read-out: Log P (Log Po/w), n-octanol/water): 3.57 ± 0.19
